Results from patent publication US20190330224A1, “ACC INHIBITORS AND USES THEREOF” (Gilead Apollo, LLC, priority 2015, published 2019).
Values after ≈ are worked out from the molar mass of the structure shown.

How the values were obtained:
Botrtyis cinerea (Bc) = assay: Growth inhibition assay of fungal pathogens, Bc; format: cell-based; conditions: 48 hours; read-out: Concentration at 90% Inhibition, Bc
Method: (§1) Compounds of the present invention were evaluated in a growth inhibition assay to determine the ability to control the growth of fungal pathogens, such as Botrtyis cinerea (Bc). Collectotrichum graminicola (Cg), Diplodia maydis (Dm), Fusarium moniliforme (Fm), Fusarium virguliforme (Fv), Phytophthora capsici (Pc), Rhizoctonia solani (Rs), and Septoria tritici (St). Compounds to be tested were dissolved in DMSO at 2.5 mg/ml to produce compound stock solutions (“stocks”). Stocks were diluted with DMSO by a five-fold dilution in a 96-well stock plate, and two sets of final concentrations of 50, 10, and 2 ppm or 2, 0.4, and 0.08 ppm were obtained in vitro. A set of positive controls was also prepared, with various concentrations of Soraphen (2, 0.4, and 0.08 ppm), Metalaxyl (1.1, 0.22, and 0.04 ppm), and Metconazole (2, 0.4, and 0.08 ppm or 0.2, 0.04, and 0.008 ppm) after the five-fold dilutions. Negative controls on each plate included 2% DMSO, water, and a blank (media+2% DMSO). Fungal spores were isolated from previously sub-cultured plates of Botrtyis cinerea (Bc), Collectotrichum graminicola (Cg), Diplodia maydis (Dm), Fusarium moniliforme (Fm), Fusarium virguliforme (Fv), Phytophthora capsici (Pc), and Septoria tritici (St). The isolated spores were diluted to individual concentrations with a 17% V8 liquid media. For Rhizoctonia solani (Rs) and Pythium irregulare, 1.5 mm mycelial plugs were used in place of spores and ¼ Potato Dextrose Broth (PDB) was used for dilution. The spore concentrations and plug sizes were based on growth curves generated at 48 hours for each pathogen. In a second 96-well plate, the spores or mycelial plugs, media, diluted compound solutions, and controls were combined. Once the compound was added, a true final concentration of compound in each well was measured by an OD600 reading, which adjusted for any compound precipitation that might have occurred in the well. Plate readings were repeated at both 24 and 48 hours. The blank negative control was used as a background subtraction. Additional visual ratings were performed at both 24 and 48 hours for checking on precipitation and confirming efficacy. Visual and OD600 ratings of the compounds at 48 hours were compared to the 2% DMSO negative control, and the percent of pathogen growth inhibition was determined based on those values.

[1] = system: Fusarium moniliforme (Fm); assay: Growth inhibition assay of fungal pathogens, Fm; format: cell-based; conditions: Fusarium verticillioides; 48 hours; read-out: Concentration at 90% Inhibition, Fm
Method: as §1

[2] = system: Fusarium virguliforme (Fv); assay: Growth inhibition assay of fungal pathogens, Fv; format: cell-based; conditions: 48 hours, read-out: Concentration at 90% Inhibition, Fv
Method: as §1

Septoria tritici (St) = assay: Growth inhibition assay of fungal pathogens, St; format: cell-based; conditions: Zymoseptoria tritici; 48 hours; read-out: Concentration at 90% Inhibition, St
Method: as §1

[3] = system: Blumeria graminis f sp. hordei; assay: Foliar protection test, barley powdery mildew control; format: in vivo, Blumeria graminis f sp. hordei on Hordeum vulgare cv. Perry; conditions: 168 h, compound concentration 50 ppm, foliar spray, evaluated 7 days after inoculation, read-out: Barley Powdery Mildew Control at 50 ppm
Method: Compounds of the present invention were evaluated in a foliar protection test to determine the ability to control barley powdery mildew. Plants (Hordeum vulgare cv. Perry) were grown for 6 days in 2-inch square pots containing Metromix 200 medium amended with fertilizer. For propagation, plants were maintained in a growth chamber at conditions of 20 to 21° C., 16 hour light cycle, 400 uM of light, 70% humidity, and with sub-irrigation as needed. After inoculation with the pathogen of Blumeria graminis f sp. hordei, plants were kept at conditions of 20 to 22° C., 70% relative humidity, and 200 uM of light to facilitate infection and disease development. At 6 days after planting (1st true leaf fully expanded), the test compounds were dissolved in a solution of 5% acetone and 0.005% Tween 80 surfactant. An atomizer was used for applying the solution onto both sides of the leaves until thoroughly wetted. The amount of the compound applied to the leaves was typically 200, 100, 50, 10, or 2 ppm, but it may vary. At 24 hours after treatment, the plants were moved to a cooler chamber and inoculated by shaking well-colonized, untreated stock plants above the treated plants. This allowed producing a settling cloud of spores and resulting in uniform infection. Efficacy was evaluated in 7 days later by examining leaves for colonization and growth of mildew. Table 5 lists the results of barley powdery mildew control at a compound concentration of 50 ppm or 10 ppm. Compounds having an activity designated as “AA” provided a compound having >85% control of barley powdery mildew; compounds having an activity designated as “A” provided a compound having from 70% to 84% control of barley powdery mildew; compounds having an activity designated as “B” provided a compound having from 50 to 69% control of barley powdery mildew; compounds having an activity designated as “C” provided a compound having from 25 to 49% control of barley powdery mildew; and compounds having an activity designated as “D” provided a compound having <25% control of barley powdery mildew.

[4] = system: Phytophthora capsici (Pc); assay: Growth inhibition assay of fungal pathogens, Pc; format: cell-based; conditions: 48 hours, read-out: Concentration at 90% Inhibition, Pc
Method: as §1

[5] = system: C. parapsilosis ATCC 22019; assay: Anti-Fungal Activity Assay (broth microtiter MIC), C. parapsilosis; format: cell-based, Candida parapsilosis; conditions: Lodderomyces parapsilosis, ATCC22019, 48 h, 3 replicates; MIC recorded at 48 h; read-out: MIC C. parapsilosis ATCC 22019
Summary of the method: (§2)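 MIC by visual comparison with growth control, read at 48 h (soraphen also at 24 h). Inoculum: colonies from overnight Sabouraud dextrose agar plates at 35° C, suspended in RPMI 1640+MOPS, density from standard curves. Microtiter broth dilution per CLSI M27-A3; compounds from 1 mg/mL DMSO stocks.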

[6] = compound concentration 10 ppm, foliar spray, evaluated 7 days after inoculation
C. krusei ATCC 6258 = assay: Anti-Fungal Activity Assay (broth microtiter MIC), C. krusei; format: cell-based, Candida krusei; conditions: Pichia kudriavzevii, ATCC6258, 48 h, 3 replicates; MIC recorded at 48 h; read-out: MIC C. krusei ATCC 6258
Summary of the method: as §2

Fungal ACC2 = Fungal ACC2 (UniProt Q00955); conditions: read-out: Fungal ACC2 (IC50, in vitro ACC2 inhibition)
Fungal ACC2, sequence (Q00955 whole entry): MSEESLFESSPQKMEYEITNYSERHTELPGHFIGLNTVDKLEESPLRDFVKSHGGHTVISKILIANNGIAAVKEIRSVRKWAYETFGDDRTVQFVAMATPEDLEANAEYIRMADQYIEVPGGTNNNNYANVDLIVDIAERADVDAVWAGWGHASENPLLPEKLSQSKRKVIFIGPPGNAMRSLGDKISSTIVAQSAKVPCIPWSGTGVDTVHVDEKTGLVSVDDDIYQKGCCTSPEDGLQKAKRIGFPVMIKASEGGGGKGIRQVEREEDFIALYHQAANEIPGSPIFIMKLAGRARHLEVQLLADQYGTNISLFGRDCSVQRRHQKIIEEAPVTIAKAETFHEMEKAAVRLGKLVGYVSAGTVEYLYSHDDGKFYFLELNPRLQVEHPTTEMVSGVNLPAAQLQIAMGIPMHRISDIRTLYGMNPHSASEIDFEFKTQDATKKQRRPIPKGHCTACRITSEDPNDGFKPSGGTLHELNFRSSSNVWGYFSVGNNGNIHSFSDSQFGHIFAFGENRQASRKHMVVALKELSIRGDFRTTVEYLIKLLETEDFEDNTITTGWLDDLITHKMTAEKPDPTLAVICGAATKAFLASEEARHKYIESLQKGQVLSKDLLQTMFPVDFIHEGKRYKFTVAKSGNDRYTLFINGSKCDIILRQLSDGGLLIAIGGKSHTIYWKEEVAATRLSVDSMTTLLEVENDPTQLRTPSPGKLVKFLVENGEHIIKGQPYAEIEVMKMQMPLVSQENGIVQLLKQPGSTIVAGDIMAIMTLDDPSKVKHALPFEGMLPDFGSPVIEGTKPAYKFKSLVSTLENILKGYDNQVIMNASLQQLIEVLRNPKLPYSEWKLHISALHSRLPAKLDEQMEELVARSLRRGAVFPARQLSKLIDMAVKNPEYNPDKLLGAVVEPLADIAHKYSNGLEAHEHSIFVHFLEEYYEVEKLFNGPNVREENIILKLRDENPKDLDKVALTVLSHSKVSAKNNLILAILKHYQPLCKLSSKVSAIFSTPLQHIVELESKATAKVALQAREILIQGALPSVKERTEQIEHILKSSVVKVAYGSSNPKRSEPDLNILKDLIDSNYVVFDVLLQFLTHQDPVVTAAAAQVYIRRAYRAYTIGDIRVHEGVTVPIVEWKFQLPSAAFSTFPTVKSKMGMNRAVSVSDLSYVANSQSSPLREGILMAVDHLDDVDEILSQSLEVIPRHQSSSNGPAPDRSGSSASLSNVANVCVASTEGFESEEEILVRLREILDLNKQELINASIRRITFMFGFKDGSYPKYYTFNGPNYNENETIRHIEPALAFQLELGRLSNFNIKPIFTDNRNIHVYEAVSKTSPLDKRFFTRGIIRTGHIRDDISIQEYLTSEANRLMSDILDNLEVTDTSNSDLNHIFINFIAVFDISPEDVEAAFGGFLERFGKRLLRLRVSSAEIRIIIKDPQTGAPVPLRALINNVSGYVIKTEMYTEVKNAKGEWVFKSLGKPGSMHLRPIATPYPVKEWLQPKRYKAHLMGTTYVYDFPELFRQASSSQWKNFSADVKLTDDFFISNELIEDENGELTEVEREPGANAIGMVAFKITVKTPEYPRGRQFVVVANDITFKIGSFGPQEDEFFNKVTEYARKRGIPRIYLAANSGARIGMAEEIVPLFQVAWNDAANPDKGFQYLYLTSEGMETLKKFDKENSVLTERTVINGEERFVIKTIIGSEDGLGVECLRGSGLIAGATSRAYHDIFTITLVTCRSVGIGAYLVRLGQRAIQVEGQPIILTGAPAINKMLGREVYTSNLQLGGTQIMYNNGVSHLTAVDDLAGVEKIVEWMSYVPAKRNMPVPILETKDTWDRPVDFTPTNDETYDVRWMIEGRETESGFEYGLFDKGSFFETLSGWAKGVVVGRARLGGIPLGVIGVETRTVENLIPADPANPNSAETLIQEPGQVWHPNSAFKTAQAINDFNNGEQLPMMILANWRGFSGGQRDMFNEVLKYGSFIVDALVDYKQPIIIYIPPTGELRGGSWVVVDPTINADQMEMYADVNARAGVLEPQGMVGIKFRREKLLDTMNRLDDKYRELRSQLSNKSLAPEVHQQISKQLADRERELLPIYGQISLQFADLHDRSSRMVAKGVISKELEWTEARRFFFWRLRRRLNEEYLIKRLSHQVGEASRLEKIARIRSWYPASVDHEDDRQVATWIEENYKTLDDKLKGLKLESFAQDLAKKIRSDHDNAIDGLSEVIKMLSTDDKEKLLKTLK

Rhizoctonia solani (Rs) = assay: Growth inhibition assay of fungal pathogens, Rs; format: cell-based; conditions: 48 hours, read-out: Concentration at 90% Inhibition, Rs
Method: as §1

[7] = system: Collectotrichum graminicola (Cg); assay: Growth inhibition assay of fungal pathogens, Cg; format: cell-based; conditions: 48 hours; read-out: Concentration at 90% Inhibition, Cg
Method: as §1

Diplodia maydis (Dm) = assay: Growth inhibition assay of fungal pathogens, Dm; format: cell-based; conditions: Stenocarpella maydis; 48 hours; read-out: Concentration at 90% Inhibition, Dm
Method: as §1

C. albicans ATCC 90028 = assay: Anti-Fungal Activity Assay (broth microtiter MIC), C. albicans; format: cell-based, Candida albicans; conditions: Candida albicans, ATCC90028, 48 h, 3 replicates; MIC recorded at 48 h; read-out: MIC C. albicans ATCC 90028
Summary of the method: as §2

Human ACC2 = Human ACC2 (Homo sapiens, UniProt O00763); assay: In vitro ACC2 inhibition assay (ADP-Glo), human ACC2; format: biochemical; conditions: 5 nM ACC2, 20 μM ATP, 20 μM acetyl-CoA
Human ACC2, sequence (O00763 whole entry): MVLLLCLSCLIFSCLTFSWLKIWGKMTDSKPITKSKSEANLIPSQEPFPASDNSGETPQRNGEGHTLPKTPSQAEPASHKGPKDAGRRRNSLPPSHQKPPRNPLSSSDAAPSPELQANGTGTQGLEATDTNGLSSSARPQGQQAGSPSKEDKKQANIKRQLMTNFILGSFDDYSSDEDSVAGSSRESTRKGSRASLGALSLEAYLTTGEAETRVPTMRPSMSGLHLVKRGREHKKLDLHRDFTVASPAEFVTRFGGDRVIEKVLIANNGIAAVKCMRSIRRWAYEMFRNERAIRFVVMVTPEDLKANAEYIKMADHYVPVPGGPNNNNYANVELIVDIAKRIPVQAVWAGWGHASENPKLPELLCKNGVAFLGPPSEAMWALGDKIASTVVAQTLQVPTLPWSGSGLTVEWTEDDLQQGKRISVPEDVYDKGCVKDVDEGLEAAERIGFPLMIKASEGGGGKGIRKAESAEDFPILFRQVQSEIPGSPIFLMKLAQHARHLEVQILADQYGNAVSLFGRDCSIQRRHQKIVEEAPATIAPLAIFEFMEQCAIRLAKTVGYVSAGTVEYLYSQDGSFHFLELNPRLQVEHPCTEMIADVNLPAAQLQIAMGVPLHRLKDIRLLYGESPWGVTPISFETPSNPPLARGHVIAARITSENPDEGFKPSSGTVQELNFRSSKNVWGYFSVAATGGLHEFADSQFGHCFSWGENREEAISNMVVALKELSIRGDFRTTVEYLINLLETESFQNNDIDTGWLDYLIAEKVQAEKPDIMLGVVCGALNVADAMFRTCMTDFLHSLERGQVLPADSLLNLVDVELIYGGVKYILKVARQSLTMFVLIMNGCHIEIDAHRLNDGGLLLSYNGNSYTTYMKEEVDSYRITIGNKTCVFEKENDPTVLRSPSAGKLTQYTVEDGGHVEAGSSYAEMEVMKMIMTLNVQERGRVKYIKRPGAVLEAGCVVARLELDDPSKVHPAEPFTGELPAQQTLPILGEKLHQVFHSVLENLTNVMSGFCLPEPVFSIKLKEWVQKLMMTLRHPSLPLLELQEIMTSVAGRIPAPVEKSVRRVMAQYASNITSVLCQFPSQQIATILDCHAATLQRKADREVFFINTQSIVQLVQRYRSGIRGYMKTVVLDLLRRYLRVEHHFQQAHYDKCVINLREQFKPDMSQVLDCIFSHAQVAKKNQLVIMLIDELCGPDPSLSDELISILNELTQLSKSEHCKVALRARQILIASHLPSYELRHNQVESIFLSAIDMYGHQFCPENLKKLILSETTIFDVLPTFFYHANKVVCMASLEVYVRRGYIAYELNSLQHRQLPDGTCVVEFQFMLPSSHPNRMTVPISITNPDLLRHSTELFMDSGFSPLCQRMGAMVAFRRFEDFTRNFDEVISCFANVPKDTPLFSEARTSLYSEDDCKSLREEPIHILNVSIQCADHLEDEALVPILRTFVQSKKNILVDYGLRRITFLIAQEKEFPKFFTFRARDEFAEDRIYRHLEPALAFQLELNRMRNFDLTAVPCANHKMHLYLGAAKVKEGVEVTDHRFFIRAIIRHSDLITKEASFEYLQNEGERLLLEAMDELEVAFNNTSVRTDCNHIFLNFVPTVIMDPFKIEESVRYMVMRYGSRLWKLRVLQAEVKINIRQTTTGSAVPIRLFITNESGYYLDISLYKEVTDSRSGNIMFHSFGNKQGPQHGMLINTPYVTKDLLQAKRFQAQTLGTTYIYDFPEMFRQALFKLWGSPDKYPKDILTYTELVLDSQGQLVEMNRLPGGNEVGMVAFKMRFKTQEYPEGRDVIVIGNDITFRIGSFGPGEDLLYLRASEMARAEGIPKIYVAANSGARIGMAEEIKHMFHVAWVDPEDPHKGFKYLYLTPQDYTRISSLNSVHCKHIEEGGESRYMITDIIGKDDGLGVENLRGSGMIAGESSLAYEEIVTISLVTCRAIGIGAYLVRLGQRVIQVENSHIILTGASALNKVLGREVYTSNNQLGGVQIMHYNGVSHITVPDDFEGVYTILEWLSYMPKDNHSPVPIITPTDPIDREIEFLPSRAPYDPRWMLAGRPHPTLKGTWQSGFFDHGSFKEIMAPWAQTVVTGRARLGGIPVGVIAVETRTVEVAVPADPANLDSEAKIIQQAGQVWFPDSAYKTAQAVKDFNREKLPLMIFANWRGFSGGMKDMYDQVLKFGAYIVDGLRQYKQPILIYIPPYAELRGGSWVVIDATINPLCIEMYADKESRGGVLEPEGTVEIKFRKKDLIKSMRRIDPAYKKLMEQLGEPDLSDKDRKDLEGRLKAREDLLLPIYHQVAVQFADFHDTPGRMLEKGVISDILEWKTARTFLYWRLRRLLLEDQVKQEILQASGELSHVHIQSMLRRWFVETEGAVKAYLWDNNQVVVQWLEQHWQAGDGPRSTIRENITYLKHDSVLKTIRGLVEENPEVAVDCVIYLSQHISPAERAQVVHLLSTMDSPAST

Structure (SMILES) | IC90 (Botrtyis cinerea (Bc)) [µg/mL] | IC90 [1] [µg/mL] | IC90 [2] [µg/mL] | IC90 (Septoria tritici (St)) [µg/mL] | pest or weed control at 50 ppm [3] [%] | IC90 [4] [µg/mL] | MIC [5] [µg/mL] | Barley Powdery Mildew Control at 10 ppm [6] | MIC (C. krusei ATCC 6258) [µg/mL] | IC50 (Fungal ACC2) [nM] | IC90 (Rhizoctonia solani (Rs)) [µg/mL] | IC90 [7] [µg/mL] | IC90 (Diplodia maydis (Dm)) [µg/mL] | MIC (C. albicans ATCC 90028) [µg/mL] | IC50 (Human ACC2) [nM]
COCCO[C@@H](Cn1c(=O)n([C@H]2CCNC2=O)c(=O)c2c(C)c(-n3cccn3)sc21)c1cc(F)ccc1OC [Compound I-41, 1-((R)-2-(5-fluoro-2-methoxyphenyl)-2-(2-methoxy-ethoxy)ethyl)-5-methyl-3-((S)-2-oxopyrrolidin-3-yl)-6-(I H-pyrazol-1-yl)thieno[2,3-d]pyrimidine-2,4(1H,3H)-dione] | > 50 | > 50 | > 50 | > 50 | 25 to 49 | > 50 | 2.1 to 4 (≈ 3.77 to 7.17 µM) | D (provided a compound having <25% control of barley powdery mildew) | 2.1 to 4 (≈ 3.77 to 7.17 µM) | 10 to 100 | > 50 | > 50 | > 50 | 2.1 to 4 (≈ 3.77 to 7.17 µM) | –
COCCO[C@@H](Cn1c(=O)n([C@H]2CCN(C)C2=O)c(=O)c2c(C)c(-n3cccn3)sc21)c1cc(F)ccc1OC [Compound I-43, 1-((R)-2-(5-fluoro-2-methoxyphenyl)-2-(2-methoxy-ethoxy)ethyl)-5-methyl-3-((S)-1-methyl-2-oxopyrrolidin-3-yl)-6-(1H-pyrazol-1-yl)thieno[2,3-d]pyrimidine-2,4(1H,3H)-dione] | > 50 | > 50 | > 50 | > 50 | 70 to 84 | > 50 | 2.1 to 4 (≈ 3.67 to 7 µM) | D (provided a compound having <25% control of barley powdery mildew) | 2.1 to 4 (≈ 3.67 to 7 µM) | 10 to 100 | > 50 | > 50 | > 50 | 2.1 to 4 (≈ 3.67 to 7 µM) | –
COc1ccc(F)cc1[C@H](Cn1c(=O)n([C@@H]2CCNC2=O)c(=O)c2c(C)c(-n3nccn3)sc21)OCCO [Compound I-81, 1-((R)-2-(5-fluoro-2-methoxyphenyl)-2-(2-hydroxy-ethoxy)ethyl)-5-methyl-3-((R)-2-oxopyrrolidin-3-yl)-6-(2H-1,2,3-triazol-2-yl)thieno[2,3-d]pyrimidine-2,4(1H,3H)-dione] | 2 (≈ 3.67 µM) | 2 (≈ 3.67 µM) | 2 (≈ 3.67 µM) | > 50 | 25 to 49 | 10 (≈ 18.4 µM) | – | D (provided a compound having <25% control of barley powdery mildew) | – | 0.7 to 2 | 10 (≈ 18.4 µM) | 10 (≈ 18.4 µM) | 10 (≈ 18.4 µM) | – | 2 to 10
COc1ccc(F)cc1[C@H](Cn1c(=O)n([C@@H]2CCNC2=O)c(=O)c2c(C)c(-n3nccn3)sc21)OCCC#N [Compound I-107, 3-((R)-1-(5-fluoro-2-methoxyphenyl)-2-(5-methyl-2,4-dioxo-3-((R)-2-oxopyrrolidin-3-yl)-6-(2H-1,2,3-triazol-2-yl)-3,4-dihydrothieno[2,3-d]pyrimidin-1(2H)-yl)ethoxy)propanenitrile] | 2 (≈ 3.61 µM) | 2 (≈ 3.61 µM) | 2 (≈ 3.61 µM) | > 50 | 50 to 69 | > 50 | – | C (provided a compound having from 25 to 49% control of barley powdery mildew) | – | 0.7 to 2 | 2 (≈ 3.61 µM) | 10 (≈ 18.1 µM) | 10 (≈ 18.1 µM) | – | 2 to 10
COc1ccc(F)cc1[C@H](Cn1c(=O)n([C@@H]2CCCNC2=O)c(=O)c2c(C)c(-n3nccn3)sc21)OCCC(=O)O [Compound I-178, 3-((R)-1-(5-fluoro-2-methoxyphenyl)-2-(5-methyl-2,4-dioxo-3-((R)-2-oxopiperidin-3-yl)-6-(2H-1,2,3-triazol-2-yl)-3,4-dihydrothieno[2,3-d]pyrimidin-1(2H)-yl)ethoxy)propanoic acid] | > 50 | 10 (≈ 17 µM) | > 50 | > 50 | 25 to 49 | > 50 | – | D (provided a compound having <25% control of barley powdery mildew) | – | 0.7 to 2 | 2 (≈ 3.41 µM) | 10 (≈ 17 µM) | > 50 | – | 10 to 100
